Results taken from patent publication US10150728B2, “Alkylene derivatives” (Shionogi & Co., Ltd., priority 2013, dated 2018).

Biological target: recombinant human ACC2 (Homo sapiens (Human), UniProt O00763)
Experiment: Measurement of inhibitory activity on human ACC2 (MALDI-TOF MS, acetyl CoA to malonyl CoA conversion)
Format: biochemical
Settings: Tables 155-159
How it was run: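 His-tagged human ACC2 (residues 27–2458) from baculovirus-infected Sf-9 cells was preincubated 1 h in pH 7.4 HEPES-KOH buffer with MgCl2, 6-10 mM potassium citrate, glutathione and BSA. Substrate solution held 1 mM ATP, 0.8 mM acetyl CoA and 25-50 mM bicarbonate. After 1–3 h at room temperature, malonyl CoA/(malonyl+acetyl CoA) was read by negative-mode MALDI-TOF MS; citrate, bicarbonate and time varied by enzyme lot.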

Sequence of recombinant human ACC2 (O00763 27-2458): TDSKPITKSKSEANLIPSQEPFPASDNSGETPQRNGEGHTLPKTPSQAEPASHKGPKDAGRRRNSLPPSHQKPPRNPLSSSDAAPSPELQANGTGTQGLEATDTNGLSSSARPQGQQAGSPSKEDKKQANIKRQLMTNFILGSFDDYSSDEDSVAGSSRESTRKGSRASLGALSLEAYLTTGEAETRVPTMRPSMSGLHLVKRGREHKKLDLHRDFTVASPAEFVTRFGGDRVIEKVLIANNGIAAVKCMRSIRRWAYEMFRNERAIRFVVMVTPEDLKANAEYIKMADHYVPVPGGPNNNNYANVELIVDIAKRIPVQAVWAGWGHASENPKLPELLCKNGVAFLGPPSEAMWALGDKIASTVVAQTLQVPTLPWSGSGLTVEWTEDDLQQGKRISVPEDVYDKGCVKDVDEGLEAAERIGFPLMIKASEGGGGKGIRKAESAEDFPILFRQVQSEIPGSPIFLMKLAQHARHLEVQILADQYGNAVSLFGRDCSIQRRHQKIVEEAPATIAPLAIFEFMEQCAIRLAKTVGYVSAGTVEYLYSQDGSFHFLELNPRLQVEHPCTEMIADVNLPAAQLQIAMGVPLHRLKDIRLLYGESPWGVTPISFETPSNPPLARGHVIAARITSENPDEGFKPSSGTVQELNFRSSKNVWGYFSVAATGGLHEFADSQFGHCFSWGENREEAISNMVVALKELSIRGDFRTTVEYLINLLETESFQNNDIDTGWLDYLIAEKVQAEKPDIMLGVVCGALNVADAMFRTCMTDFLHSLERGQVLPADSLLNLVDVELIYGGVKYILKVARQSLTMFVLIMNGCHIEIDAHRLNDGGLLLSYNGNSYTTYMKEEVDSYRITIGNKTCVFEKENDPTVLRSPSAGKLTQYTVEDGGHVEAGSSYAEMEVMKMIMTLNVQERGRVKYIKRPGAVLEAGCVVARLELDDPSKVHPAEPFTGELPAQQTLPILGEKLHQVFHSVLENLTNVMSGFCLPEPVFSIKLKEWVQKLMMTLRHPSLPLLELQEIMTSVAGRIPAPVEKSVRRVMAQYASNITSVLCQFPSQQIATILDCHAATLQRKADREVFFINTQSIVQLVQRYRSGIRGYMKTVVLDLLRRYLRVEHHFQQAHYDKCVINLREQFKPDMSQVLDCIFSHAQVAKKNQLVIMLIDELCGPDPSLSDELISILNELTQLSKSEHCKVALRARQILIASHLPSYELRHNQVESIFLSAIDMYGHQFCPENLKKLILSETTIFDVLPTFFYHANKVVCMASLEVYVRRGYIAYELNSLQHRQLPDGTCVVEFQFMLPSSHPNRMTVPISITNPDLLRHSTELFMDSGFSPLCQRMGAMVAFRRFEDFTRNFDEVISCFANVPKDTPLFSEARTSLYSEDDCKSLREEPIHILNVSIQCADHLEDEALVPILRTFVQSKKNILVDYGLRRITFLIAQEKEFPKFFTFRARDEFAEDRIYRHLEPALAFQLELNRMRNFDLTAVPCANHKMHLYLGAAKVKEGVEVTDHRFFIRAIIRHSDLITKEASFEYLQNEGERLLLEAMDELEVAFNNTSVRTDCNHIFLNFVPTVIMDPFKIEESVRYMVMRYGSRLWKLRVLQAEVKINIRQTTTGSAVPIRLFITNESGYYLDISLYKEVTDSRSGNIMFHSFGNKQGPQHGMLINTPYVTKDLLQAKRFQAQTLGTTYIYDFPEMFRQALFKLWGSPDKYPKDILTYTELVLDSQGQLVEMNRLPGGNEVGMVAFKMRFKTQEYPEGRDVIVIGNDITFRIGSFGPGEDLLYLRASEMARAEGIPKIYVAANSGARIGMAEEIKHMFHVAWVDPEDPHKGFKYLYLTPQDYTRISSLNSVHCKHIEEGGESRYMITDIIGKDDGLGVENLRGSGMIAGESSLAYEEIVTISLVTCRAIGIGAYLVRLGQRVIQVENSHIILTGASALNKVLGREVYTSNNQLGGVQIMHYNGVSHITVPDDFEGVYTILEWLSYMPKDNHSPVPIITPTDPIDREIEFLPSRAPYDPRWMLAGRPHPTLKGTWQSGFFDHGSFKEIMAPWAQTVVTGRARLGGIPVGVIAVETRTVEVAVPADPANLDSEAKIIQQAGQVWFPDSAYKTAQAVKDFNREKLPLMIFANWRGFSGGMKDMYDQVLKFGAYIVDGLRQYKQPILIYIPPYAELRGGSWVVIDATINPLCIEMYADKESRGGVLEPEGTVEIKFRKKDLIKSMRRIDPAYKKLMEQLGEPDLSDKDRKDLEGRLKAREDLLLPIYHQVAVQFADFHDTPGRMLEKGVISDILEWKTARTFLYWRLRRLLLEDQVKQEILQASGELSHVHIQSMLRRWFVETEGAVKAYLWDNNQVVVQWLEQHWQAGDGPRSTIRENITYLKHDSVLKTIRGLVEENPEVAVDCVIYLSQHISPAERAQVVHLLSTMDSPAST

Compound | IC50
CCOc1ccc2nc(O[C@H]3CC[C@H](OC[C@H](C)NC(C)=O)CC3)n(C(C)C)c2c1 [Compound I-562] | 0.35 µM
CCOc1cc2c(cn1)nc(O[C@H]1CC[C@H](OC[C@H](C)NC(C)=O)CC1)n2C [Compound I-563] | 0.101 µM
CCOc1ccc2c(c1)nc(O[C@H]1CC[C@H](OC[C@H](C)NC(C)=O)CC1)n2C [Compound I-564] | 0.385 µM
CC(=O)N[C@@H](C)CO[C@H]1CC[C@H](Oc2nc3cc(OC(C)C)ccc3n2C)CC1 [Compound I-566] | 0.304 µM
CC(=O)N[C@@H](C)CO[C@H]1CC[C@H](Oc2nc3cc(OCC4CC4)ccc3n2C)CC1 [Compound I-567] | 0.167 µM
CCOc1ccc2nc(O[C@H]3CC[C@H](OC[C@H](C)NC(C)=O)CC3)n(C3CC3)c2c1 [Compound I-568] | 0.225 µM
CC(=O)N[C@@H](C)CO[C@H]1CC[C@H](Oc2nc3ccc(OCC(F)F)cc3n2C)CC1 [Compound I-569] | 0.086 µM
COc1ccc2c(c1)nc(O[C@H]1CC[C@H](OC[C@H](C)NC(C)=O)CC1)n2C [Compound I-570] | 0.935 µM
CC(=O)N[C@@H](C)CO[C@H]1CC[C@H](Oc2nc3ccc(OCC(F)(F)F)cc3n2C)CC1 [Compound I-571] | 0.166 µM
CC(=O)N[C@@H](C)CO[C@H]1CC[C@H](Oc2nc3ccc(OC(F)(F)F)cc3n2C)CC1 [Compound I-572] | 0.227 µM
CCCc1ccc2nc(O[C@H]3CC[C@H](OC[C@H](C)NC(C)=O)CC3)n(C)c2c1 [Compound I-573] | 0.068 µM
CC(=O)N[C@@H](C)CO[C@H]1CC[C@H](Oc2nc3ccc(C4CC4)cc3n2C)CC1 [Compound I-574] | 0.129 µM
CCSc1ccc2nc(O[C@H]3CC[C@H](OC[C@H](C)NC(C)=O)CC3)n(C)c2c1 [Compound I-577] | 0.062 µM
CC(=O)N[C@@H](C)CO[C@H]1CC[C@H](Oc2nc3ccc(SCC(C)C)cc3n2C)CC1 [Compound I-578] | 0.11 µM
CCOc1ccc2nc(O[C@H]3CC[C@H](OC[C@H](C)NC(C)=O)CC3)n(CC)c2c1 [Compound I-579] | 0.334 µM
CC(=O)N[C@@H](C)CO[C@H]1CC[C@H](Oc2nc3ccc(-c4ccccc4)cc3n2C)CC1 [Compound I-582] | 0.168 µM
CCc1ccc2nc(O[C@H]3CC[C@H](OC[C@H](C)NC(C)=O)CC3)n(C)c2c1 [Compound I-583] | 0.071 µM
CC(=O)N[C@@H](C)CO[C@H]1CC[C@H](Oc2nc3ccc(C(C)C)cc3n2C)CC1 [Compound I-585] | 0.077 µM
CC(=O)N[C@@H](C)CO[C@H]1CC[C@H](Oc2nc3ccc(Oc4ccccc4)cc3n2C)CC1 [Compound I-586] | 0.009 µM
CC(=O)N[C@@H](C)CO[C@H]1CC[C@H](Oc2nc3cc(C(F)(F)F)ccc3n2C)CC1 [Compound I-587] | 0.087 µM
CC(=O)N[C@@H](C)CO[C@H]1CC[C@H](Oc2nc3ccc(Oc4ccccn4)cc3n2C)CC1 [Compound I-590] | 0.584 µM
CC(=O)N[C@@H](C)CO[C@H]1CC[C@H](Oc2nc3cnc(Oc4ccccc4)cc3n2C)CC1 [Compound I-592] | 0.11 µM
CC(=O)N[C@@H](C)CO[C@H]1CC[C@H](Oc2nc3ccc(Oc4cccnc4)cc3n2C)CC1 [Compound I-593] | 0.08 µM

Compound | IC50
CC(=O)N[C@@H](C)CO[C@H]1CC[C@H](Oc2nc3ccc(Oc4ccncc4)cc3n2C)CC1 [Compound I-594] | 0.383 µM
CC(=O)N[C@@H](C)CO[C@H]1CC[C@H](Oc2nc3ccc(Oc4ccc(F)cc4)cc3n2C)CC1 [Compound I-596] | 0.01 µM
COc1ccc2nc(O[C@H]3CC[C@H](OC[C@H](C)NC(C)=O)CC3)n(C)c2c1F [Compound I-599] | 0.023 µM
CC(=O)N[C@@H](C)CO[C@H]1CC[C@H](Oc2nc3ccc(OCc4ccccc4)c(F)c3n2C)CC1 [Compound I-600] | 0.013 µM
CCOc1ccc2nc(O[C@H]3CC[C@H](OC[C@H](C)NC(C)=O)CC3)n(C)c2c1F [Compound I-601] | 0.008 µM
CC(=O)N[C@@H](C)CO[C@H]1CC[C@H](Oc2nc3ccc(OC(C)C)c(F)c3n2C)CC1 [Compound I-602] | 0.012 µM
CCOc1c(Cl)cc2nc(O[C@H]3CC[C@H](OC[C@H](C)NC(C)=O)CC3)n(C)c2c1Cl [Compound I-603] | 0.007 µM
CCOc1ccc2nc(O[C@H]3CC[C@H](OC[C@H](C)NC(C)=O)CC3)n(C)c2c1Cl [Compound I-604] | 0.006 µM
CCOc1ccc2nc(O[C@H]3CC[C@H](OC[C@H](C)NC(C)=O)CC3)n(C)c2c1Br [Compound I-605] | 0.013 µM
CCOc1ccc2nc(O[C@H]3CC[C@H](OC[C@H](C)NC(C)=O)CC3)n(C)c2c1C [Compound I-606] | 0.074 µM
CC(=O)N[C@@H](C)CO[C@H]1CC[C@H](Oc2nc3cnc(OC(C)C)cc3n2C)CC1 [Compound I-607] | 0.11 µM
CC(=O)N[C@@H](C)CO[C@H]1CC[C@H](Oc2nc3cnc(OC[C@H](C)F)c(Cl)c3n2C)CC1 [Compound I-608] | 0.011 µM
CC(=O)N[C@@H](C)CO[C@H]1CC[C@H](Oc2nc3c(Cl)c(Cl)c(OCC(F)F)cc3n2C)CC1 [Compound I-609] | 0.525 µM
CCOc1cc2c(nc(O[C@H]3CC[C@H](OC[C@H](C)NC(C)=O)CC3)n2C)c(F)c1Cl [Compound I-610] | 0.085 µM
CC(=O)N[C@@H](C)CO[C@H]1CC[C@H](Oc2nc3c(F)cc(OC4CC4)c(F)c3n2C)CC1 [Compound I-611] | 0.003 µM
C[C@@H](CO[C@H]1CC[C@H](Oc2nc3c(F)cc(OCC(F)F)c(F)c3n2C)CC1)NC(=O)C(F)F [Compound I-614] | 0.011 µM
CC(=O)N[C@@H](C)CC[C@H]1OC[C@H](Oc2nc3c(F)cc(OCC(F)F)c(F)c3n2C)CO1 [Compound I-615] | 0.027 µM
CC(=O)N[C@@H](C)CO[C@H]1CC[C@H](Oc2nc3c(F)cc(OC4CN(C(C)=O)C4)c(F)c3n2C)CC1 [Compound I-616] | 0.24 µM
CC(=O)N[C@@H](C)CO[C@H]1CC[C@H](Oc2nc3c(C#N)cc(OC4CC4)c(F)c3n2C)CC1 [Compound I-617] | 0.009 µM
CC(=O)N[C@@H](C)CO[C@H]1CC[C@H](Oc2nc3c(Cl)c(F)c(OCC(F)F)c(F)c3n2C)CC1 [Compound I-618] | 0.017 µM
CC(=O)N[C@@H](C)CO[C@H]1CC[C@H](Oc2nc3c(F)c(F)c(F)c(F)c3n2C)CC1 [Compound I-619] | 0.009 µM
CC(=O)N[C@@H](C)CO[C@H]1CC[C@H](Oc2nc3cnc(OCc4ccccc4)c(Cl)c3n2C)CC1 [Compound I-620] | 0.028 µM
CC(=O)N[C@@H](C)CO[C@H]1CC[C@H](Oc2nc3ccc(C4CC4)c(F)c3n2C)CC1 [Compound I-621] | 0.008 µM

Compound | IC50
CC(=O)N[C@@H](C)CO[C@H]1CC[C@H](Oc2nc3c(F)cc(Br)cc3n2C)CC1 [Compound I-622] | 0.072 µM
CC(=O)N[C@@H](C)CO[C@H]1CC[C@H](Oc2nc3c(Cl)cc(OCC(F)F)c(Cl)c3n2C)CC1 [Compound I-623] | 0.017 µM
CC(=O)N[C@@H](C)CO[C@H]1CC[C@H](Oc2nc3cnc(OCC(F)F)c(F)c3n2C)CC1 [Compound I-624] | 0.009 µM
CC(=O)N[C@@H](C)CO[C@H]1CC[C@H](Oc2nc3cnc(OCC4CC4)c(F)c3n2C)CC1 [Compound I-625] | 0.005 µM
CC(=O)N[C@@H](C)CO[C@H]1CC[C@H](Oc2nc3c(F)cc(OCC4CC4)c(F)c3n2C)CC1 [Compound I-626] | 0.006 µM
CC(=O)N[C@@H](C)CC[C@@H]1CC[C@@H](Oc2nc3c(F)cc(OCC(F)F)c(F)c3n2C)CO1 [Compound I-627] | 0.005 µM
C[C@@H](CO[C@H]1CC[C@H](Oc2nc3c(F)cc(OCC(F)F)c(F)c3n2C)CC1)NC(=O)CO [Compound I-628] | 0.059 µM
C[C@@H](CO[C@H]1CC[C@H](Oc2nc3c(F)cc(OCC(F)F)c(F)c3n2C)CC1)NC(=O)c1cnn(C)c1 [Compound I-629] | 0.098 µM
CC(=O)N[C@@H](C)CO[C@H]1CC[C@H](Oc2nc3c(F)cc(F)c(F)c3n2C)CC1 [Compound I-630] | 0.025 µM
C[C@@H](CO[C@H]1CC[C@H](Oc2nc3c(F)cc(OCC(F)F)c(F)c3n2C)CC1)NC(=O)N(C)C [Compound I-631] | 0.01 µM
CC(=O)N[C@@H](C)CO[C@H]1CC[C@H](Oc2nc3c(C)nc(OC4CC4)c(F)c3n2C)CC1 [Compound I-632] | 0.019 µM
CC(=O)N[C@@H](C)CO[C@H]1CC[C@H](Oc2nc3cnc(OCc4ccccc4)c(F)c3n2C)CC1 [Compound I-634] | 0.034 µM
CCOc1cc(F)c2c(nc(O[C@H]3CC[C@H](OC[C@H](C)NC(C)=O)CC3)n2C)c1F [Compound I-635] | 0.104 µM
CC(=O)N[C@@H](C)CC[C@H]1CC[C@H](Oc2nc3cnc(OC4CC4)c(Cl)c3n2C)CC1 [Compound I-636] | 0.004 µM
CC(=O)N[C@@H](C)CO[C@H]1CC[C@H](Oc2nc3c(F)cc(OCC(F)F)c(Cl)c3n2C)CC1 [Compound I-637] | 0.004 µM
CC(=O)N[C@@H](C)CO[C@H]1CC[C@H](Oc2nc3c(Cl)ccc(F)c3n2C)CC1 [Compound I-638] | 0.14 µM
CC(=O)N[C@@H](C)CO[C@H]1CC[C@H](Oc2nc3c(F)cc(OC4CCC4)c(F)c3n2C)CC1 [Compound I-639] | 0.002 µM
C[C@@H](CO[C@H]1CC[C@H](Oc2nc3c(F)cc(OCC(F)F)c(F)c3n2C)CC1)NC(=O)COC(N)=O [Compound I-640] | 0.11 µM
CCOc1cc2c(nc(O[C@H]3CC[C@H](OC[C@H](C)NC(C)=O)CC3)n2C)c(F)n1 [Compound I-641] | 0.073 µM
CC(=O)N[C@@H](C)CC[C@H]1CC[C@H](Oc2nc3c(F)cc(OCC(F)F)c(F)c3n2C)CO1 [Compound I-642] | 0.007 µM
CC(=O)N[C@@H](C)C(F)(F)C[C@@H]1CC[C@@H](Oc2nc3c(F)cc(OCC(F)F)c(F)c3n2C)CO1 [Compound I-643] | 0.25 µM
CC(=O)N[C@@H](C)CC[C@H]1OC[C@H](Oc2nc3cnc(OCC(F)F)c(Cl)c3n2C)C[C@@H]1C [Compound I-644] | 0.026 µM
